The record followed here is US20130102631A1, “NOVEL MICROBIOCIDAL DIOXIME ETHER DERIVATIVES” (SYNGENTA CROP PROTECTION LLC, priority 2010, published 2013).

Assay [1] relates to Phaeosphaeria nodorum (Septoria nodorum). Kind of assay: Phaeosphaeria nodorum (Septoria nodorum) / wheat / leaf disc preventative (glume blotch). It counts as in vivo. Conditions: Parastagonospora nodorum, foliar, wheat leaf segments cv Kanzler, inoculated 2 days after application, assessed 5-7 days after application. The protocol:
Phaeosphaeria nodorum (Septoria nodorum)/Wheat/Leaf Disc Preventative (Glume Blotch): Wheat leaf segments cv Kanzler were placed on agar in a 24-well plate and sprayed with formulated test compound diluted in water at an application rate of 200 ppm. The leaf disks are inoculated with a spore suspension of the fungus 2 days after application. The inoculated test leaf disks are incubated at 20° C. and 75% relative humidity under a light regime of 12/12 h (light/dark) in a climate cabinet and the activity of a compound is assessed as percent disease control compared to untreated when an appropriate level of disease damage appears in untreated check leaf disks (5-7 days after application). […]-2.508; 5.561; 2.561; E/E-2.208; P.57; 2.513; 2.559; 2.558; 2.557; 2.556; 2.555; 2.374; 2.544; 2.541; 2.539; 2.537; 2.536; 2.535; 2.533; 2.530; 2.526; 2.519; 2.510; 2.516; 2.514; E/E-5.167; E/E-3.002; 2.512

The next assay has as its system Glomerella lagenarium. Description: Glomerella lagenarium (Colletotrichum lagenarium) / liquid culture (anthracnose). The settings on record: Colletotrichum orbiculare; at ≦200 ppm, liquid culture PDB, inhibition of growth photometrically 3-4 days after application; read-out: control of Glomerella lagenarium. It counts as cell-based. The protocol: Glomerella lagenarium (Colletotfichum lagenarium)/Liquid Culture (Anthracnose): Conidia of the fungus from cryogenic storage were directly mixed into nutrient broth (PDB potato dextrose broth). After placing a DMSO solution of test compound into a 96-well microtiter, the nutrient broth containing the fungal spores was added. The test plates were incubated at 24° C. and the inhibition of growth is measured photometrically 3-4 days after application. […]-2.509; 5.561; 2.561; E/E-2.208; P.57; 2.513; 2.559; 2.556; 2.555; 2.374; 2.552; 2.548; 2.544; 2.541; 2.540; 2.539; 2.537; 2.536; 2.533; 2.531; 2.530; 2.528; 2.526; 2.519; 2.510; 2.516; 2.514; E/E-5.167; E/E-3.002; 2.512; 2.514; Z/E-2.474

In assay [2] the test system is Mycosphaerella arachidis (Cercospora arachidicola). Description: Mycosphaerella arachidis (Cercospora arachidicola) / liquid culture (early leaf spot). Conditions: at ≦200 ppm, liquid culture PDB, inhibition of growth photometrically 4-5 days after application, read-out: control of Mycosphaerella arachidis. The assay is classed as cell-based. The protocol:
Mycosphaerella arachidis (Cercospora arachidicola)/Liquid Culture (Early Leaf Spot): Conidia of the fungus from cryogenic storage were directly mixed into nutrient broth (PDB potato dextrose broth). After placing a DMSO solution of test compound into a 96-well microtiter plate, the nutrient broth containing the fungal spores was added. The test plates are incubated at 24° C. and the inhibition of growth was determined photometrically 4-5 days after application. […]-2.509; 5.561; 2.561; P.57; 2.513; 2.559; 2.558; 2.557; 2.556; 2.555; 2.374; 2.553; 2.552; 2.551 (fraction B); 2.551 (fraction A); 2.544; 2.541; 2.539; 2.537; 2.536; 2.533; 2.532; 2.531; 2.530; 2.528; 2.526; 2.525 (fraction B); 2.525 (fraction A); 2.524; 2.520; 2.519; 2.510; 2.518; 2.517; 2.516; 2.514; […].002; 2.512; 2.511; 2.514

In assay [3] the test system is Mycosphaerella graminicola (Septoria tritici). Description: Mycosphaerella graminicola (Septoria tritici) / liquid culture (Septoria blotch). The assay is classed as cell-based. Conditions: Zymoseptoria tritici; at ≦200 ppm, liquid culture PDB, inhibition of growth photometrically 4-5 days after application; read-out: control of Mycosphaerella graminicola.
The test system of assay [4] is Monographella nivalis (Microdochium nivale). Kind of assay: Monographella nivalis (Microdochium nivale) / liquid culture (foot rot cereals). It counts as cell-based. Conditions: at ≦200 ppm, liquid culture PDB, inhibition of growth photometrically 4-5 days after application, read-out: control of Monographella nivalis. The protocol:
Monographella nivalis (Microdochium nivale)/Liquid Culture (Foot Rot Cereals): Conidia of the fungus from cryogenic storage were directly mixed into nutrient broth (PDB potato dextrose broth). After placing a DMSO solution of test compound into a 96-well microtiter plate, the nutrient broth containing the fungal spores was added. The test plates were incubated at 24° C. and the inhibition of growth was determined photometrically 4-5 days after application. […].57; 2.513; 2.559; 2.558; 2.556; 2.555; 2.374; 2.553; 2.551 (fraction B); 2.551 (fraction A); 2.548; 2.544; 2.542; 2.541; 2.539; 2.536; 2.535; 2.533; 2.530; 2.528; 2.526; 2.525 (fraction B); 2.525 (fraction A); 2.524; 2.519; 2.518; 2.516; 2.514; E/E-5.167; 2.512; 2.514

The subject of a further assay is Gaeumannomyces graminis. Description: Gaeumannomyces graminis / liquid culture (take-all of cereals). The settings on record: at ≦200 ppm, liquid culture PDB, inhibition of growth photometrically 4-5 days after application, read-out: control of Gaeumannomyces graminis. It counts as cell-based. The protocol:
Gaeumannomyces graminis/Liquid Culture (Take-All of Cereals): Mycelial fragments of the fungus from cryogenic storage were directly mixed into nutrient broth (PDB potato dextrose broth). After placing a DMSO solution of test compound into a 96-well microtiter plate, the nutrient broth containing the fungal spores is added. The test plates were incubated at 24° C. and the inhibition of growth was determined photometrically 4-5 days after application. […]-2.509; 5.561; 2.561; P.57; 2.513; 2.559; 2.558; 2.557; 2.556; 2.555; 2.374; 2.553; 2.552; 2.551 (fraction B); 2.551 (fraction A); 2.539; 2.533; 2.528; 2.526; 2.525 (fraction B); 2.525 (fraction A); 2.524; 2.523; 2.521; 2.520; 2.519; 2.510; 2.518; 2.516; 2.514; E/E-5.167; E/E-3.002; 2.512; E/E-2.508

One may read the pest or weed control as the degree to which the test organism was suppressed or injured, in per cent. Low readings indicate a weak effect, high ones a strong effect. As for `C/C(=N\OCC(C)(C)CO/N=C1\CCCc2ccc(C)nc21)c1cccc(C#N)n1` [Compound 2.536], the pest or weed control at 200 ppm in assay [1] was no less than 80%. The inhibition of growth at up to 200 µg/mL (in the assay with Glomerella lagenarium; in assay [2]; in assay [3]; in assay [4]) was no less than 80% throughout.
`CSc1nc(/C=N/OCC(C)(C)CO/N=C2\CCCc3ccc(C)nc32)ccc1C#N` [Compound 2.535] returned a pest or weed control at 200 ppm in assay [1] of no less than 80%. For the same compound, the inhibition of growth at up to 200 µg/mL in assay [3] and in assay [4] was no less than 80% each time.
Consider `C/C(=N\OCC(C)(C)CO/N=C1\CCCc2ccc(C)nc21)c1cc(C(C)(C)C)ccn1` [Compound 2.541], for which, in assay [1], the pest or weed control at 200 ppm is no less than 80%. For the same compound, the inhibition of growth at up to 200 µg/mL (in the assay on Glomerella lagenarium; in assay [2]; in assay [3]; in assay [4]) was no less than 80% in each case.
For `Cc1ccc2c(n1)/C(=N/OCC(C)(C)CO/N=C(\c1ccc(Cl)cc1)c1ccccn1)CCC2` [Compound 2.532], the inhibition of growth at up to 200 µg/mL in assay [2] and in assay [3] was no less than 80% in each case.
In the case of `C/C(=N\OCC(C)(C)CO/N=C1\CCCc2ccc(C)nc21)c1ncc(Cl)cc1O` [Compound 2.548], the inhibition of growth at up to 200 µg/mL (in the assay on Glomerella lagenarium; in assay [3]; in assay [4]) was no less than 80% throughout.
For `Cc1ccc2c(n1)/C(=N/OCC(C)(C)CO/N=C(/c1ncc(Cl)cc1Cl)C(C)C)CCC2` [Compound 2.542], the inhibition of growth at up to 200 µg/mL in assay [3] and in assay [4] was no less than 80% in each case.
With `CC/C(=N\OCC(C)(C)CO/N=C1\CCCc2ccc(C)nc21)c1ncc(Cl)cc1Cl` [Compound 2.549], the inhibition of growth at up to 200 µg/mL in assay [3] was no less than 80%.
For `CC/C(=N/OCC(C)(C)CO/N=C1\CCCc2ccc(C)nc21)c1ccc(C(F)(F)F)cn1` [Compound 2.524], the inhibition of growth at up to 200 µg/mL (in assay [2]; in the assay with Gaeumannomyces graminis; in assay [4]) was no less than 80% in each case.
Take `C/C(=N\OCC(C)(C)CO/N=C1\CCCc2ccc(C)nc21)c1ncc(C(F)(F)F)cc1Cl` (single isomer, unassigned) [2.551 (fraction B)]: the inhibition of growth at up to 200 µg/mL (in assay [2]; in assay [3]; with Gaeumannomyces graminis; in assay [4]) was no less than 80% each time.
With `Cc1ccc2c(n1)/C(=N/OCC(C)(C)CO/N=C(\c1ncc(Cl)cc1F)C(C)Cl)CCC2` (stereo not drawn) [Compound 2.545], the inhibition of growth at up to 200 µg/mL in assay [3] is no less than 80%.
On to `Cc1cccc(/C(=N\OCC(C)(C)CO/N=C2\CCCc3ccc(C)nc32)c2ccccc2)n1` [Z/E-2.474], for which the inhibition of growth at up to 200 µg/mL (in the assay on Glomerella lagenarium; in assay [2]) was no less than 80% each time.
As for `COC(=O)C/C(=N/OCC(C)(C)CO/N=C1\CCCc2ccc(C)nc21)c1ncc(Cl)cc1F` [Compound 2.518], the inhibition of growth at up to 200 µg/mL (in assay [2]; in the assay with Gaeumannomyces graminis; in assay [4]) was no less than 80% throughout.
For `Cc1ccc2c(n1)/C(=N/OCC(C)(C)CO/N=C(/c1cccc(Br)n1)c1ccccc1C)CCC2` [Compound 2.539], the pest or weed control at 200 ppm in assay [1] is no less than 80%. Also, the inhibition of growth at up to 200 µg/mL (in the assay with Glomerella lagenarium; in assay [2]; in assay [3]; in the assay on Gaeumannomyces graminis; in assay [4]) was no less than 80% each time.
As for `COC(=O)c1ccc(C(F)(F)F)nc1/C(C)=N/OCC(C)(C)CO/N=C1\CCCc2ccc(C)nc21` [Compound 2.540], the inhibition of growth at up to 200 µg/mL (in the assay with Glomerella lagenarium; in assay [3]) was no less than 80% throughout.
For the compound `C/C(=N\OCC(C)(C)CO/N=C1\CCCc2ccc(C)nc21)c1ncc(Cl)cc1F` [E/E-2.509], the inhibition of growth at up to 200 µg/mL (with Glomerella lagenarium; in assay [2]; in assay [3]; in the assay on Gaeumannomyces graminis; in assay [4]) was no less than 80% throughout.
Regarding `Cc1ccc2c(n1)/C(=N/OCC(C)(C)CO/N=C(/c1ccccn1)c1ncc(C(F)(F)F)cc1Cl)CCC2` [Compound 2.520], the inhibition of growth at up to 200 µg/mL (in assay [2]; with Gaeumannomyces graminis) was no less than 80% in each case.
For `Cc1ccc2c(n1)/C(=N/OCC(C)(C)CO/N=C(/c1ccccc1)c1ncc(C(F)(F)F)cc1Cl)CCC2` [Compound 2.521], in the assay with Gaeumannomyces graminis, the inhibition of growth at up to 200 µg/mL was no less than 80%.
Consider `CCOC(=O)c1ccc(/C(C)=N\OCC(C)(C)CO/N=C2\CCCc3ccc(C)nc32)nc1C(F)(F)F` [Compound 2.523], for which the inhibition of growth at up to 200 µg/mL in the assay with Gaeumannomyces graminis was no less than 80%.
On to `C/C(=N\OCC(C)(C)CO/N=C1\CCCc2ccc(C)nc21)c1cc(C#N)ccn1` [Compound 2.531], for which the inhibition of growth at up to 200 µg/mL (in the assay with Glomerella lagenarium; in assay [2]; in assay [3]) was no less than 80% throughout.
